In patent publication US11903983B2, “Composition comprising new Lactobacillus salivarius strains and method for the prevention and treatment of otitis and upper respiratory infections” (priority 2018, dated 2024):
Converted amounts (≈) assume the structure as drawn.

These compounds were tested on L. salivarius PS7 (assay: Antibiogram: MIC by VetMIC microdilution and E-test). Settings: not given.
Format: cell-based, Lactobacillus salivarius
Procedure: The suspension was further adjusted to 3×10^5 CFU/ml with LSM, and 100 μl were inoculated to wells of microtiter VetMIC plates for lactic acid bacteria (National Veterinary Institute of Sweden, Uppsala, Sweden). The plates were incubated at 37° C. for 48 h and the MIC was defined as the lowest concentration at which no growth was observed.
Parallel, minimum inhibitory concentrations (MICs) were also determined by the E-test (AB BIODISK, Solna, Sweden) following the instructions of the manufacturer. Briefly, after overnight incubation, agar cultures were checked for purity. For inoculums preparation, individual colonies were suspended in a sterile glass culture tube containing 5 ml sterile saline (0.85% NaCl solution) until a density corresponding to a McFarland (McF) standard of 0.5 was obtained. A sterile cotton swab was dipped into the standardized inoculum and used to inoculate an agar plate. Inoculated plates were allowed to dry for approximately 15 min before application of the E-test strips with preformed antimicrobial gradients. […] For bacteriostatic agents (e.g., tetracycline, erythromycin and clindamycin), the MIC was read at the point where growth was inhibited by 80% (i.e., the first point of significant inhibition as judged by the naked eye).
Results from the different antibiotic susceptibility tests were interpreted according to the cut-off levels proposed by the European Food Safety Authority (EFSA, 2012).

Compound | antibiotic susceptibility of L. salivarius PS7 according to EFSA cut-off levels
CN[C@H](CC(C)C)C(=O)N[C@H]1C(=O)N[C@@H](CC(N)=O)C(=O)N[C@H]2C(=O)N[C@H]3C(=O)N[C@H](C(=O)N[C@H](C(=O)O)c4cc(O)cc(O)c4-c4cc3ccc4O)[C@H](O)c3ccc(c(Cl)c3)Oc3cc2cc(c3O[C@@H]2O[C@H](CO)[C@@H](O)[C@H](O)[C@H]2O[C@H]2C[C@](C)(N)[C@H](O)[C@H](C)O2)Oc2ccc(cc2Cl)[C@H]1O [Vancomycin] | intrinsically resistant

Same assay, conditions: Ligilactobacillus salivarius, PS7, read-out: MICs (L. salivarius PS7)

Compound | MIC [µg/mL]
CC1(C)S[C@@H]2[C@H](NC(=O)[C@H](N)c3ccccc3)C(=O)N2[C@H]1C(=O)O [Ampicillin] | 0.5 (≈ 1.43 µM)
O=C(N[C@H](CO)[C@H](O)c1ccc([N+](=O)[O-])cc1)C(Cl)Cl [Chloramphenicol] | 2 (≈ 6.19 µM)
CCC[C@@H]1C[C@@H](C(=O)N[C@@H]([C@H]2O[C@H](SC)[C@H](O)[C@@H](O)[C@H]2O)[C@H](C)Cl)N(C)C1 [Clindamycin] | 0.5 (≈ 1.18 µM)
CC[C@H]1OC(=O)[C@H](C)[C@@H](O[C@H]2C[C@@](C)(OC)[C@@H](O)[C@H](C)O2)[C@H](C)[C@@H](O[C@@H]2O[C@H](C)C[C@H](N(C)C)[C@H]2O)[C@](C)(O)C[C@@H](C)C(=O)[C@H](C)[C@@H](O)[C@]1(C)O [Erythromycin] | 0.12 (≈ 0.164 µM)
NC[C@H]1O[C@H](O[C@H]2[C@H](O)[C@@H](O[C@H]3O[C@H](CO)[C@@H](O)[C@H](N)[C@H]3O)[C@H](N)C[C@@H]2N)[C@H](O)[C@@H](O)[C@@H]1O [Kanamycin] | 128 (≈ 264 µM)
CC(=O)NC[C@H]1CN(c2ccc(N3CCOCC3)c(F)c2)C(=O)O1 [Linezolid] | 1 (≈ 2.96 µM)
[H]/N=C(/N)N[C@H]1[C@H](O)[C@@H](O)[C@H](O[C@@H]2O[C@@H](C)[C@](O)(C=O)[C@H]2O[C@@H]2O[C@@H](CO)[C@H](O)[C@@H](O)[C@@H]2NC)[C@@H](N/C(N)=N\[H])[C@@H]1O [Streptomycin] | 32 (≈ 55 µM)
CN[C@H](CC(C)C)C(=O)N[C@H]1C(=O)N[C@@H](CC(N)=O)C(=O)N[C@H]2C(=O)N[C@H]3C(=O)N[C@H](C(=O)N[C@H](C(=O)O)c4cc(O)cc(O)c4-c4cc3ccc4O)[C@H](O)c3ccc(c(Cl)c3)Oc3cc2cc(c3O[C@@H]2O[C@H](CO)[C@@H](O)[C@H](O)[C@H]2O[C@H]2C[C@](C)(N)[C@H](O)[C@H](C)O2)Oc2ccc(cc2Cl)[C@H]1O [Vancomycin] | > 128

Same assay, conditions: antibiotic against L. salivarius PS7

Compound | MICs (L. salivarius PS7) [µg/mL]
CN(C)[C@@H]1C(=O)C(C(N)=O)=C(O)[C@@]2(O)C(=O)C3=C(O)c4c(O)cccc4[C@@](C)(O)[C@H]3C[C@@H]12 [Tetracyclin] | 2
Gentamicin | 0.12
Penicillin | 0.25
